Experimental data from patent publication US20240218385A1, “NEGATIVE-STRAND RNA VIRAL VECTOR AND PLANT GENOME EDITING METHOD WITHOUT TRANSFORMATION” (ZHEJIANG UNIVERSITY, priority 2021, published 2024).

Assays:
Format in all cases: cell-based
TSWV [1] = experiment: TSWV clearance from regenerated tobacco plants by antiviral treatment
Text: (§1) This embodiment further investigates the impact of antiviral drug treatment on virus clearance and mutant plant recovery using tobacco leaf tissues infected with the TSWV vectors for tissue culture and regeneration. We used the recombinant TSWV-Cas12a-crRNA vector described in Example 24 as an example, which targets the crPDS1 target sites of both PDS genes in tobacco. The systemic leaves infected with this virus vector were used as explants for tissue culture and plant regeneration, following the same experimental protocol as described in Example 24.
(§2) The distribution of mutant genotypes in the regenerated plants from each drug treatment group was further analyzed.

[2] = tested on: PDS genes crPDS1 target sites; experiment: Target mutations in regenerated tobacco plants after antiviral treatment (HTS)
Text: as §1, §2

TSWV [3] = experiment: TSWV clearance from regenerated N. benthamiana plants by antiviral treatment during tissue culture (RT-PCR with N-specific primers); details: 40 mg/L in medium; explants infected with TSWV-Cas12a-crRNA targeting crPDS1
[4] = tested on: PDS gene crPDS1 target site; experiment: Mutation genotypes at the crPDS1 target in regenerated N. benthamiana plants after antiviral treatment (HTS); details: for proportion of M0 plants with mutations at the target site: ribavirin 40 mg/L, favipiravir 40 mg/L, remdesivir 1.2 mg/L
Text: Plant regeneration through culturing the leaf tissues infected with the TSWV vectors are usually ineffective in eliminating the virus. The embodiment investigated the effect of antiviral treatment during plant regeneration on virus clearance using leaf tissues infected with the TSWV-Cas12a-crRNA vector targeting the N. benthamiana crPDS1 site. […] After 35 days of culturing, explants together with induced callus were transferred to an induction medium without antiviral agents until day 55, and then the regenerated seedlings were transferred to a rooting medium. Three independent biological replicates were included in each group, and 30 plants were randomly selected in each biological replicate of each group for subsequent analysis. Total RNA was extracted from M0 regenerated seedlings, and RT-PCR was conducted using the TSWV N specific primers N/F ([…]; SEQ ID NO: 131) and N/R ([…]; SEQ ID NO: 132) to examine the virus clearance rate. The primers Nb/actin/F ([…]; SEQ ID NO: 133) and Nb/actin/R ([…]; SEQ ID NO: 134) for amplification of the NbActin cDNA served as an internal control. […] In contrast, the mock treatment had only 4.4% of virus-free regenerated plants.
To further evaluate the effect of drug treatment on the efficiency of gene editing in the regenerated plants, DNA sequences containing the target loci were PCR amplified using specific primers (SEQ ID NO: 70 and 71), and the resulting amplicons were high-throughput sequenced. The mutation type of each plant was analyzed, and the editing efficiency of each group was calculated. We used the following definitions to call the putative genotype: wild-type (WT) with editing efficiency (indels %) of 0-10.0%; chimeric (Chi) with 10%<indels %≤35.0%; heterozygous (He) with 35.0%<indels %≤80.0%, i.e., one allele is edited at the target site but the other allele is wild-type; homozygous (Ho) with indels % between 80.0% and 100.0% if both alleles have the same type of editing, and biallelic (Bi) if two alleles produced two different types of editing.

Structure (SMILES)	presence of viral vectors in the regenerated plants (TSWV [1])	proportion of mutation types in regenerated plants [2]	percentage of regenerated plants carrying target mutations ([2]; HTS)	TSWV clearance rate (regenerated plants free of virus) (TSWV [3]) [%]	plants with tetra-allelic mutations at the crPDS1 target site ([4]; 40 mg/L ribavirin in medium) [%]	proportion of Chi types compared to the mock group ([4]; M0 plants, PDSa and PDSb)	proportion of Ho/Bi types compared to the mock group ([4]; M0 plants, PDSa and PDSb)	proportion of M0 plants with mutations at the target site ([4]; PDSa and PDSb)	total editing efficiency compared to the mock group ([4]; M0 plants)
NC(=O)c1ncn([C@@H]2O[C@H](CO)[C@@H](O)[C@H]2O)n1 [ribavirin]	effectively cleared the virus from all of the regenerated plants	increased the proportion of various mutation types	significantly higher than that in the control treatment and other drug treatment groups	100	28.9	decreased	increased in both homoeologs	highest proportion of plants with mutations	–
NC(=O)c1nc(F)c[nH]c1=O [favipiravir]	–	–	–	–	–	–	significantly higher than that of the mock group	lowest mutation rates	lower than that of the mock group
